System: brain of rats subjected to closed-head diffuse severe TBI (sTBI)
Assay: HPLC of energy metabolites, antioxidants and oxidative/nitrosative stress biomarkers in brain, dose study after sTBI (Example 3)
Type: in vivo, rat
Excerpt: Male Wistar rats (n=160) of 300-350 g body weight were used in this study.
1994, 80: 291-300. This model causes diffuse axonal injury and it is able to reproduce the physical and mechanical characteristics of the diffuse TBI in humans.
Rats were placed prone on a bed of specific polyurethane foam inserted in a special container. This foam dissipates the major part of the potential energy (deriving from the mechanical forces) and prevents any rebound of the animal after the impact that could produce spinal damages.
These time points are coincident with the worst biochemical derangement (2 days) or, in the case of a mildly injured brain, with a full metabolic recovery (7 days).
The drug treatment consisted in a subcutaneous injection of 0.5 ml of LMW-DS (Tikomed) and administered at 3 different concentrations (1, 5 and 15 mg/kg body weight), according to the schematic protocol described below.
Sham-operated animals underwent the same procedure of anesthesia but TBI and were used as the control group.
Rats used in this study were divided into 4 groups in order to carry out a study on the efficacy of three different concentrations of LMW-DS at two different times post TBI. As subsequently specified, in each group there were animals subjected to a specific treatment for metabolic analyses and other animals intended to histo-morphological studies, according to the procedures described below.
Rats subjected to sTBI and receiving a single administration of LMW-DS after 30 minutes post-TBI, with sacrifice at 2 days post-TBI. Animals were divided in the following subgroups:
Rats subjected to sTBI and receiving a single administration of LMW-DS after 30 minutes post-TBI, with sacrifice at 7 days post-TBI. Animals were divided in the following subgroups:
Rats (n=12) subjected to sTBI and receiving repeated administrations of the maximal dose of LMW-DS (15 mg/kg b.w.) after 30 minutes, 3 days and 5 days post-TBI, with sacrifice at 7 days post-TBI. Four additional rats were used for the histo-morphological studies. Total rats in this group: n=16
To minimize metabolite loss, an in vivo craniectomy was performed in all animals during anesthesia. The rat skull was carefully removed, the brain was exposed, sharply cut along the sagittal fissure and the two hemispheres were separated. The hemispheres dedicated to biochemical analyses were freeze-clamped by aluminum tongues pre-cooled in liquid nitrogen and then immersed in liquid nitrogen. The freeze-clamping procedure was introduced to accelerate freezing of the tissue, thus minimizing potential metabolite loss.
Tissue homogenization for metabolite analyses was effected as described below. After the wet weight (w.w.) determination, the frozen hemispheres were placed into 7 ml of ice-cold, nitrogen-saturated, precipitating solution (1:10 w/v) composed by CH3CN+10 mM KH2PO4, pH 7.40, (3:1; v:v), and the homogenization was performed using an Ultra-Turrax homogenizer set at 24,000 rpm/min (Janke & Kunkel, Staufen, Germany). After centrifugation at 20,690×g, for 10 min at 4° C., the clear supernatants were saved, pellets were supplemented with an aliquot of 10 mM KH2PO4 and homogenized again as described above and saved overnight at −20° C. in order to obtain a complete recovery of aqueous phase from tissue. A second centrifugation was performed (20,690×g, for 10 min at 4° C.) and supernatants combined with those previously obtained were extracted by vigorous agitation with a double volume of HPLC-grade CHCl3 and centrifuged as above.

[1] = rats 2 days post-TBI, single 15 mg/kg b.w. 30 min after trauma
[2] = rats 7 days post-sTBI, repeated 15 mg/kg b.w.
[3] = rats 7 days post-sTBI, single 1 mg/kg b.w.
[4] = rats 7 days post-sTBI, single 5 mg/kg b.w.
[5] = rats 7 days post-sTBI, single 15 mg/kg b.w.

Substance: sodium salt of dextran sulfate [LMW-DS]
- GUANOSINE concentration in brain homogenate [1]: 24.35 ± 4.05 nmol/g w.w.
- HYPDXANTHINE concentration in brain homogenate [1]: 6.82 ± 1.12 nmol/g w.w.
- INOSINE concentration in brain homogenate [1]: 142.91 ± 18.63 nmol/g w.w.
- URACIL concentration in brain homogenate [1]: 15.55 ± 3.04 nmol/g w.w.
- β-PSEUDOURIDINE concentration in brain homogenate [1]: 7.84 ± 1.57 nmol/g w.w.
- ADENOSINE concentration in brain homogenate [2]: 40.84 ± 30.25 nmol/g w.w.
- ADP-Ribose concentration in brain homogenate [2]: 13.23 ± 3.32 nmol/g w.w.
- AMP concentration in brain homogenate [2]: 43.12 ± 3.39 nmol/g w.w.
- Acetyl-CoA concentration in brain homogenate [2]: 37.91 ± 6.46 nmol/g w.w.
- CMP concentration in brain homogenate [2]: 31.21 ± 13.28 nmol/g w.w.
- CoA-SH concentration in brain homogenate [2]: 45.76 ± 5.87 nmol/g w.w.
- GDP concentration in brain homogenate [2]: 109.06 ± 12.46 nmol/g w.w.
- GUANINE concentration in brain homogenate [2]: 3.32 ± 1.41 nmol/g w.w.
- GUANOSINE concentration in brain homogenate [2]: 19.66 ± 4.10 nmol/g w.w.
- INOSINE concentration in brain homogenate [2]: 139.26 ± 15.62 nmol/g w.w.
- Malonyl-CoA concentration in brain homogenate [2]: 12.56 ± 2.27 nmol/g w.w.
- NADPH concentration in brain homogenate [2]: 11.21 ± 2.60 nmol/g w.w.
- NO2 concentration in brain homogenate [2]: 130.69 ± 28.31 nmol/g w.w.
- UDP-GIcNac concentration in brain homogenate [2]: 86.42 ± 29.89 nmol/g w.w.
- UDP-Gal concentration in brain homogenate [2]: 135.15 ± 9.29 nmol/g w.w.
- UDP-GalNac concentration in brain homogenate [2]: 16.50 ± 4.73 nmol/g w.w.
- URACIL concentration in brain homogenate [2]: 24.13 ± 4.96 nmol/g w.w.
- URIDINE concentration in brain homogenate [2]: 97.21 ± 23.03 nmol/g w.w.
- XANTHINE concentration in brain homogenate [2]: 11.24 ± 3.18 nmol/g w.w.
- ADP concentration in brain homogenate [3]: 286.78 ±38.19 nmol/g w.w.
- AMP concentration in brain homogenate [3]: 43.13 ± 3.39 nmol/g w.w.
- ASCORBIC ACID concentration in brain homogenate [3]: 2177.22 ± 262.21 nmol/g w.w.
- CDP choline concentration in brain homogenate [3]: 6.26 ± 2.01 nmol/g w.w.
- CMP concentration in brain homogenate [3]: 25.41 ± 10.81 nmol/g w.w.
- CYTIDINE concentration in brain homogenate [3]: 29.67 ± 10.44 nmol/g w.w.
- CYTOSINE concentration in brain homogenate [3]: 16.03 ± 3.44 nmol/g w.w.
- GDP concentration in brain homogenate [3]: 121.72 ± 13.91 nmol/g w.w.
- GMP concentration in brain homogenate [3]: 113.06 ± 53.51 nmol/g w.w.
- GSH concentration in brain homogenate [3]: 1627.30 ± 214.51 nmol/g w.w.
- GUANINE concentration in brain homogenate [3]: 6.86 ± 2.92 nmol/g w.w.
- GUANOSINE concentration in brain homogenate [3]: 19.11 ± 3.98 nmol/g w.w.
- NADH concentration in brain homogenate [3]: 8.20 ± 1.41 nmol/g w.w.
- NAD^+ concentration in brain homogenate [3]: 268.14 ± 37.97 nmol/g w.w.
- NO3 concentration in brain homogenate [3]: 153.62 ± 26.24 nmol/g w.w.
- UDP-GIcNac concentration in brain homogenate [3]: 85.36 ± 29.53 nmol/g w.w.
- UDP-Gal concentration in brain homogenate [3]: 130.20 ± 8.95 nmol/g w.w.
- UDP-GalNac concentration in brain homogenate [3]: 15.85 ± 4.54 nmol/g w.w.
- XANTHINE concentration in brain homogenate [3]: 12.53 ± 3.54 nmol/g w.w.
- ADP concentration in brain homogenate [4]: 289.27 ± 38.52 nmol/g w.w.
- AMP concentration in brain homogenate [4]: 59.50 ± 4.68 nmol/g w.w.
- ASCORBIC ACID concentration in brain homogenate [4]: 2195.87 ± 264.45 nmol/g w.w.
- CDP choline concentration in brain homogenate [4]: 10.37 ± 3.33 nmol/g w.w.
- CYTIDINE concentration in brain homogenate [4]: 26.51 ± 9.33 nmol/g w.w.
- CYTOSINE concentration in brain homogenate [4]: 12.67 ± 2.72 nmol/g w.w.
- GMP concentration in brain homogenate [4]: 101.42 ± 48.00 nmol/g w.w.
- GUANINE concentration in brain homogenate [4]: 7.92 ± 3.37 nmol/g w.w.
- GUANOSINE concentration in brain homogenate [4]: 33.42 ± 6.96 nmol/g w.w.
- NADH concentration in brain homogenate [4]: 8.83 ± 1.26 nmol/g w.w.
- NADPH concentration in brain homogenate [4]: 12.30 ± 2.86 nmol/g w.w.
- NADP^+ concentration in brain homogenate [4]: 24.45 ± 8.97 nmol/g w.w.
- UDP concentration in brain homogenate [4]: 44.19 ± 6.22 nmol/g w.w.
- UDP-GIcNac concentration in brain homogenate [4]: 85.14 ± 29.45 nmol/g w.w.
- UDP-Gal concentration in brain homogenate [4]: 132.66 ± 9.12 nmol/g w.w.
- UDP-Glc concentration in brain homogenate [4]: 58.10 ± 11.81 nmol/g w.w.
- XANTHINE concentration in brain homogenate [4]: 14.33 ± 4.05 nmol/g w.w.
- ADENOSINE concentration in brain homogenate [5]: 55.95 ± 41.44 nmol/g w.w.
- ADP concentration in brain homogenate [5]: 276.83 ± 36.87 nmol/g w.w.
- ADP-Ribose concentration in brain homogenate [5]: 19.21 ± 4.82 nmol/g w.w.
- Acetyl-CoA concentration in brain homogenate [5]: 38.60 ± 6.57 nmol/g w.w.
- CDP choline concentration in brain homogenate [5]: 10.06 ± 3.23 nmol/g w.w.
- CYTIDINE concentration in brain homogenate [5]: 33.06 ± 11.63 nmol/g w.w.
- CYTOSINE concentration in brain homogenate [5]: 13.87 ± 2.98 nmol/g w.w.
- GDP concentration in brain homogenate [5]: 122.07 ± 13.95 nmol/g w.w.
- GUANINE concentration in brain homogenate [5]: 5.27 ± 2.24 nmol/g w.w.
- GUANOSINE concentration in brain homogenate [5]: 20.91 ± 4.36 nmol/g w.w.
- NADP^+ concentration in brain homogenate [5]: 23.75 ± 8.72 nmol/g w.w.
- NAD^+ concentration in brain homogenate [5]: 491.52 ± 69.61 nmol/g w.w.
- NO3 concentration in brain homogenate [5]: 161.99 ± 27.67 nmol/g w.w.
- UDP-Gal concentration in brain homogenate [5]: 137.57 ± 9.46 nmol/g w.w.
- XANTHINE concentration in brain homogenate [5]: 12.71 ± 3.60 nmol/g w.w.
